According to ChEMBL document CHEMBL3784991, “Design, synthesis and evaluation of novel HIV-1 NNRTIs with dual structural conformations targeting the entrance channel of the NNRTI binding pocket” (Eur J Med Chem, 2016):
pEC50: −log10 of the molar value.

Columns and labels:
[1] = Cytotoxicity against mock infected human MT4 cells after 4 days by MTT assay; assay type: cell-based
[2] = system: Human immunodeficiency virus 1; assay: Antiviral activity against wild type HIV1 3B infected in human MT4 cells assessed as cell viability after 4 days by MTT assay; assay type: functional, organism-based; conditions: Human immunodeficiency virus 1, 3B, MT4, 96 h
[3] = system: Human immunodeficiency virus 1; assay: Antiviral activity against HIV1 RES056 harboring reverse transcriptase K103N/[…] double mutant infected in human MT4 cells assessed as cell viability after 4 days by MTT assay; assay type: functional, organism-based; conditions: Human immunodeficiency virus 1, RES056, MT4, 96 h
[4] = system: Human immunodeficiency virus 2; assay: Antiviral activity against HIV2 ROD infected in human MT4 cells assessed as cell viability after 4 days by MTT assay; assay type: functional, organism-based; conditions: Human immunodeficiency virus 2, ISOLATE ROD, MT4, 96 h
[5] = Selectivity index, ratio of CC50 for mock infected human MT4 cells to EC50 for HIV1 3B infected in human MT4 cells; assay type: toxicity, cell-based; conditions: read-out: Ratio CC50/EC50
[6] = Selectivity index, ratio of CC50 for mock infected human MT4 cells to EC50 for HIV2 ROD infected in human MT4 cells; assay type: toxicity, cell-based; conditions: read-out: Ratio CC50/EC50
[7] = Selectivity index, ratio of CC50 for mock infected human MT4 cells to EC50 for HIV1 RES056 harboring reverse transcriptase K103N/[…] double mutant infected in human MT4 cells; assay type: toxicity, cell-based; conditions: read-out: Ratio CC50/EC50

Row | SMILES | CC50 at 96 h [1] [µM] | pEC50 [2] | pEC50 [3] | pEC50 [4] | selectivity ratio [5] | selectivity ratio [6] | selectivity ratio [7]
1 | Cc1cc(C#N)cc(C)c1Oc1nc(Nc2ccc(C#N)cc2)nc(N)c1Br [ETRAVIRINE] | 2.16 | 8.41 | 7.47 | – | – | – | –
2 | Cc1cccc(Nc2cc(Oc3c(C)cc(C)cc3C)nc(Nc3ccc(C#N)cc3)n2)c1 | 24.1 | < 4.62 | < 4.62 | < 4.62 | < 1 | < 1 | < 1
3 | Cc1cccc(Nc2cc(Oc3c(C)cc(C#N)cc3C)nc(Nc3cccc(C#N)c3)n2)c1 | 2.89 | < 5.54 | – | < 5.54 | < 1 | < 1 | –
4 | O=c1[nH]cnc2c1ncn2[C@H]1CC[C@@H](CO)O1 [DIDANOSINE] | > 212 | 4.12 | – | 4.09 | > 3 | > 3 | –
5 | Nc1ccn([C@H]2CS[C@@H](CO)O2)c(=O)n1 | > 87.2 | 5.60 | – | 5.00 | > 34 | > 9 | –
6 | Cc1cc(C)c(Oc2cc(Nc3ccc(C#N)cc3)nc(Nc3cccc(C#N)c3)n2)c(C)c1 | 5.38 | < 5.27 | – | < 5.27 | < 1 | < 1 | –
7 | O=C1Nc2ccc(Cl)cc2[C@@](C#CC2CC2)(C(F)(F)F)O1 [EFAVIRENZ] | > 6.34 | – | 6.65 | – | > 1210 | – | > 28
8 | Cc1ccc(Nc2nc(Nc3ccc(Cl)cc3)cc(Oc3c(C)cc(C#N)cc3C)n2)cc1 | > 274 | 4.50 | < 3.56 | < 3.56 | > 9 | 1 | 1
9 | Cc1cc(C)c(Oc2cc(Nc3ccc(C#N)cc3)nc(Nc3ccc(C#N)cc3)n2)c(C)c1 | 5.98 | 6.11 | < 5.22 | < 5.22 | 8 | < 1 | < 1
10 | Cc1cc(C)c(Oc2cc(Nc3ccc(Cl)cc3)nc(Nc3ccc(C#N)cc3)n2)c(C)c1 | 6.68 | ≤ 5.79 | < 5.18 | < 5.18 | ≤ 4 | < 1 | < 1
11 | Cc1ccc(Nc2nc(Nc3ccc(Cl)cc3)cc(Oc3c(C)cc(C)cc3C)n2)cc1 | 48.2 | < 4.32 | – | < 4.32 | < 1 | < 1 | –
12 | Cc1cccc(Nc2cc(Oc3c(C)cc(C#N)cc3C)nc(Nc3ccc(C#N)cc3)n2)c1 | 2.96 | 6.09 | < 5.53 | < 5.53 | 4 | < 1 | < 1
13 | Cc1cc(C)c(Oc2cc(Nc3ccc(Cl)cc3)nc(Nc3cccc(C#N)c3)n2)c(C)c1 | 12 | < 4.90 | – | < 4.90 | < 1 | < 1 | –
